Measurements published in patent US20080182822A1, “Liquid Pharmaceutical Compositions Comprising a Bisphosphonate Compound” (Besins Healthcare SA, priority 2006, published 2008).
Values joined by “and” are separate entries in the source; they are usually repeats but may differ in a detail not shown here. Equal values may be shown once. Read-outs that look alike come from different tables or passages of the source.

Conditions: rat; for Faeces Excretion, Amount Excreted (% of Dose), 8 hours / Urinary Excretion, Amount Excreted (% of Dose), 8 hours: collection 0-8 hours; for Faeces Excretion, Amount Excreted (% of Dose), 72 hours / Urinary Excretion, Amount Excreted (% of Dose), 72 hours: collection 48-72 hours; for Faeces Excretion, Amount Excreted (% of Dose), 96 hours / Urinary Excretion, Amount Excreted (% of Dose), 96 hours: collection 72-96 hours; for Faeces Excretion, Amount Excreted (% of Dose), 120 hours / Urinary Excretion, Amount Excreted (% of Dose), 120 hours: collection 96-120 hours; for Faeces Excretion, Amount Excreted (% of Dose), 144 hours / Urinary Excretion, Amount Excreted (% of Dose), 144 hours: collection 120-144 hours; for Faeces Excretion, Amount Excreted (% of Dose), 168 hours / Urinary Excretion, Amount Excreted (% of Dose), 168 hours: collection 144-168 hours; for Recovery from Treated Skin, % of Dose: dermal (Group 2)
[1] = dermal 1.9 mg (Group 2), individual animals
[2] = dermal 1.9 mg (Group 2), collection 8-24 hours, individual animals
[3] = dermal 1.9 mg (Group 2), collection 24-48 hours, individual animals
[4] = dermal 1.9 mg (Group 2), necropsy Day 4, Mean
[5] = dermal 1.9 mg (Group 2), necropsy Day 4, individual animals
[6] = dermal 1.9 mg (Group 2), necropsy Day 8, Mean
[7] = dermal 1.9 mg (Group 2), necropsy Day 8, individual animals

In the case of `NCCCC(O)(P(=O)(O)O)P(=O)(O)O` [14C-alendronate], the “Faeces Excretion, Total Excretion (% of Dose), 0-168 hours” value (dermal 1.9 mg (Group 2), Mean) is reported as “approximately 2 % of Dose”, the “Urinary Excretion, Total Excretion (% of Dose), 0-72 hours” value (dermal 1.9 mg (Group 2), Mean) is reported as 0.40% of Dose and the “Faeces Excretion, Amount Excreted (% of Dose), 8 hours” value (dermal 1.9 mg (Group 2), Mean) is reported as 0.004% of Dose. For the same compound, the “Urinary Excretion, Amount Excreted (% of Dose), 8 hours” value (dermal 1.9 mg (Group 2), Mean) was 0.17% of Dose, the “Faeces Excretion, Amount Excreted (% of Dose), 8 hours” value [1] was 0.004% of Dose (2×) and 0.000% of Dose (2×) and 0.001% of Dose (2×) and 0.014% of Dose and 0.003% of Dose and the “Urinary Excretion, Amount Excreted (% of Dose), 8 hours” value [1] was 0.15% of Dose and 0.02% of Dose and 0.05% of Dose and 0.08% of Dose (2×) and 0.22% of Dose and 0.14% of Dose and 0.09% of Dose and 0.83% of Dose and 0.07% of Dose. For the same compound, the “Urinary Excretion, Amount Excreted (% of Dose), 24 hours” value (dermal 1.9 mg (Group 2), collection 8-24 hours, Mean) was 0.12% of Dose, the “Faeces Excretion, Amount Excreted (% of Dose), 24 hours” value [2] was 0.047% of Dose and 0.001% of Dose and 0.066% of Dose and the “Urinary Excretion, Amount Excreted (% of Dose), 24 hours” value [2] was 0.07% of Dose (3×) and 0.06% of Dose (2×) and 0.05% of Dose and 0.27% of Dose and 0.33% of Dose and 0.16% of Dose and 0.11% of Dose. The “Urinary Excretion, Amount Excreted (% of Dose), 48 hours” value (dermal 1.9 mg (Group 2), collection 24-48 hours, Mean) was 0.06% of Dose, the “Faeces Excretion, Amount Excreted (% of Dose), 48 hours” value [3] was 0.68% of Dose and 0.30% of Dose and 0.58% of Dose and 0.60% of Dose and 0.53% of Dose and 0.52% of Dose and the “Urinary Excretion, Amount Excreted (% of Dose), 48 hours” value [3] was 0.06% of Dose (5×) and 0.02% of Dose (2×) and 0.14% of Dose and 0.12% of Dose and 0.03% of Dose. The “Faeces Excretion, Amount Excreted (% of Dose), 72 hours” value (dermal 1.9 mg (Group 2), Mean) was 0.16% of Dose, the “Urinary Excretion, Amount Excreted (% of Dose), 72 hours” value (dermal 1.9 mg (Group 2), Mean) was 0.04% of Dose and the “Faeces Excretion, Amount Excreted (% of Dose), 72 hours” value [1] was 0.33% of Dose and 0.19% of Dose and 0.15% of Dose and 0.10% of Dose and 0.46% of Dose and 0.17% of Dose and 0.05% of Dose and 0.02% of Dose (2×). The “Urinary Excretion, Amount Excreted (% of Dose), 72 hours” value [1] was 0.06% of Dose (2×) and 0.02% of Dose (3×) and 0.03% of Dose (2×) and 0.01% of Dose (2×) and 0.13% of Dose, the “Faeces Excretion, Amount Excreted (% of Dose), 96 hours” value (dermal 1.9 mg (Group 2), Mean) was 0.10% of Dose and the “Urinary Excretion, Amount Excreted (% of Dose), 96 hours” value (dermal 1.9 mg (Group 2), Mean) was 0.03% of Dose. The “Faeces Excretion, Amount Excreted (% of Dose), 96 hours” value [1] was 0.13% of Dose and 0.05% of Dose (2×) and 0.09% of Dose and 0.18% of Dose, the “Urinary Excretion, Amount Excreted (% of Dose), 96 hours” value [1] was 0.05% of Dose and 0.03% of Dose (2×) and 0.02% of Dose and 0.01% of Dose and the “Faeces Excretion, Amount Excreted (% of Dose), 120 hours” value (dermal 1.9 mg (Group 2), Mean) was 0.07% of Dose. For the same compound, the “Urinary Excretion, Amount Excreted (% of Dose), 120 hours” value (dermal 1.9 mg (Group 2), Mean) was 0.02% of Dose, the “Faeces Excretion, Amount Excreted (% of Dose), 120 hours” value [1] was 0.13% of Dose and 0.05% of Dose (2×) and 0.02% of Dose and 0.10% of Dose and the “Urinary Excretion, Amount Excreted (% of Dose), 120 hours” value [1] was 0.06% of Dose and 0.02% of Dose (2×) and 0.01% of Dose (2×). The “Faeces Excretion, Amount Excreted (% of Dose), 144 hours” value (dermal 1.9 mg (Group 2), Mean) was 0.05% of Dose, the “Urinary Excretion, Amount Excreted (% of Dose), 144 hours” value (dermal 1.9 mg (Group 2), Mean) was 0.01% of Dose and the “Faeces Excretion, Amount Excreted (% of Dose), 144 hours” value [1] was 0.07% of Dose and 0.04% of Dose (2×) and 0.03% of Dose and 0.09% of Dose. For the same compound, the “Urinary Excretion, Amount Excreted (% of Dose), 144 hours” value [1] was 0.02% of Dose and 0.01% of Dose (4×), the “Faeces Excretion, Amount Excreted (% of Dose), 168 hours” value (dermal 1.9 mg (Group 2), Mean) was 0.00% of Dose and the “Urinary Excretion, Amount Excreted (% of Dose), 168 hours” value (dermal 1.9 mg (Group 2), Mean) was 0.00% of Dose. For the same compound, the “Faeces Excretion, Amount Excreted (% of Dose), 168 hours” value [1] was 0.01% of Dose (3×) and 0.00% of Dose (2×), the “Urinary Excretion, Amount Excreted (% of Dose), 168 hours” value [1] was 0.01% of Dose and 0.00% of Dose (4×) and the “Faeces Excretion, Total Excretion (% of Dose), 0-72 hours” value [1] was 0.53% of Dose and 0.88% of Dose and 0.59% of Dose. The “Faeces Excretion, Total Excretion (% of Dose), 0-168 hours” value [1] was 0.66% of Dose, the “Urinary Excretion, Total Excretion (% of Dose), 0-72 hours” value [1] was 0.34% of Dose and 0.16% of Dose and 0.20% of Dose and 0.17% of Dose and 0.57% of Dose and 0.74% of Dose and 0.21% of Dose and 0.23% of Dose and 0.22% of Dose and the “Concentration in bone, Femur” value [4] was 0.060 μg 14C-alendronate/g bone. The “Concentration in bone, Tibia” value [4] was 0.039 μg 14C-alendronate/g bone, the “Concentration in bone, Femur” value [5] was 0.222 μg 14C-alendronate/g bone and 0.018 μg 14C-alendronate/g bone (2×) and 0.015 μg 14C-alendronate/g bone and 0.026 μg 14C-alendronate/g bone and the “Concentration in bone, Tibia” value [5] was 0.130 μg 14C-alendronate/g bone and 0.039 μg 14C-alendronate/g bone and 0.016 μg 14C-alendronate/g bone and 0.002 μg 14C-alendronate/g bone and 0.011 μg 14C-alendronate/g bone. For the same compound, the “Concentration in bone, Femur” value [6] was 0.029 μg 14C-alendronate/g bone, the “Concentration in bone, Tibia” value [6] was 0.017 μg 14C-alendronate/g bone and the “Concentration in bone, Femur” value [7] was 0.022 μg 14C-alendronate/g bone and 0.016 μg 14C-alendronate/g bone and 0.011 μg 14C-alendronate/g bone and 0.069 μg 14C-alendronate/g bone. For the same compound, the “Concentration in bone, Tibia” value [7] was 0.012 μg 14C-alendronate/g bone and 0.007 μg 14C-alendronate/g bone and 0.031 μg 14C-alendronate/g bone, the “Recovery from Treated Skin, % of Dose” value (necropsy Day 4, Mean) was 0.35% and the “Recovery from Treated Skin, % of Dose” value (necropsy Day 4, individual animals) was 0.35% (2×) and 0.30% and 0.44% and 0.33%. For the same compound, the “Recovery from Treated Skin, % of Dose” value (necropsy Day 8, Mean) was 0.28%.
